# In PMC7347206, “Characterization of a long-term mouse primary liver 3D tissue model recapitulating innate-immune responses and drug-induced liver toxicity” (PLoS ONE, 2020):
# Read-outs that look alike come from different tables or passages of the source.
# How the values were obtained:
# [1] = tested on: mouse primary hepatocyte 3D liver spheroids; test: cells; details: for IC50: Mus musculus, Hepatocyte; for MOS [3D in vitro IC50 / Human Cmax] 48 h / MOS [3D in vitro IC50 / Human Cmax] 8 days: C57BL/6, mouse
# Description: To avoid increased evaporation, a humidified lid (Labcyte, USA), filled with PBS, was placed on each plate. […] From day 4 on, 50% of the medium was replaced daily with serum-free maintenance medium (WME with Cell Maintenance Supplement Pack (Thermo Fisher Scientific, USA)).
# Compounds were obtained from Sigma-Aldrich if not otherwise stated. […] Toxicity treatment started on day 7 with re-dosing every second day. On the first day of exposure, 50 μl of the cell culture media was removed and 50 μl of fresh cell culture media containing the compound solution was added to the well to achieve the desired concentration. For redosing, 50 μl of cell culture media was replaced with fresh compound-containing cell culture media. […] The dose-response curves were plotted, and IC50 values were calculated using Graph-Pad Prism.
# Drug-induced liver injury (DILI) is a major concern in drug development, which often cannot be predicted in vitro due to inherent limitations of 2D hepatocyte cultures, including short-term viability and decreased functionality. […] The spheroids either experienced a single treatment and were analyzed after 48 hours (Fig 3A–3G, 48 h), or they were repeatedly treated every 2 days and analyzed at day 8 (Fig 3A–3G, 8 days). In both cases, ATP content was used as a viability marker.
# [2] = read-out: Human Cmax; reported human in vivo Cmax; 48 (one per compound, as in cell); cited from earlier work
# [3] = read-out: Mouse Cmax; reported mouse in vivo maximal plasma concentration; 41 (one per compound, as in cell); cited from earlier work
# [4] = tested on: bile-salt-export pump (BSEP); test: Drug-induced cholestasis: BSEP gene expression (qRT-PCR) in coculture spheroids; details: 24 h
# [5] = tested on: liver coculture spheroids; test: Cytotoxicity by LDH release or ATP content in the cholestasis study; details: all treatment conditions (1.25, 2.5, 10 μM), 24 h
# [6] = tested on: IL-6; test: Crosstalk of parenchymal and non-parenchymal cells: IL-6 mRNA in coculture spheroids; assay type: cell-based, mouse
# Description: (§1) Cytochrome P450 (Cyp450), as well as IL-6 and TNFα gene expression was measured by qRT-PCR.
# (§2) Drug-induced liver injuries can be caused by several modes of action, including perturbations of biochemical pathways caused by the interaction of parenchymal and non-parenchymal cells. These complex and dynamic cellular interactions can only be represented in vivo or in coculture models, which include the parenchymal and non-parenchymal cells.
# [7] = tested on: TNFα; test: Crosstalk of parenchymal and non-parenchymal cells: TNFα mRNA in coculture spheroids; assay type: cell-based, mouse; details: addition of 50 μM Dexamethasone to LPS; as compared to IL-6
# Description: as §1, §2
# [8] = tested on: Cyp3a; test: Cyp3a inhibition, P450-Glo activity assay in non-induced spheroids; details: 10 μM Ketoconazole
# [9] = tested on: Cyp3a11; test: Cyp450 induction on mRNA level (qRT-PCR) in liver spheroids; assay type: in vitro ADME, mouse; details: PCN 50 μM, Pb 100 μM
# Description: (§3) To analyze the metabolic capacity, spheroids were incubated with different Cyp inducers for 72 hours, starting 7 days or 14 days post seeding and analyzed by qRT-PCR. […] PCN and βNF were dissolved in DMSO as a 1000x stock solution, Pb was dissolved directly in the cell culture media.
# (§4) For the biotransformation of endogenous compounds and xenobiotics including drugs, liver cytochromes P450 (Cyp450) play a critical role as they convert substances into more polar products to facilitate the elimination from the body. The major drug-metabolizing Cyp450 in mouse include Cyp1a1, Cyp1a2, Cyp2b10, and Cyp3a11 [34]. To assess their metabolic capacity, spheroids were incubated with well-known Cyp450 inducers for […] and analyzed for Cyp450 induction on RNA level on day 10 and day 17 (Figs 2C and S4). […] Additionally, spheroids were incubated with Phenobarbital (Pb), a known Cyp2b10 and Cyp3a11 inducer.
# [10] = tested on: Cyp2b10; test: as above; assay type: in vitro ADME, mouse; details: 100 μM Pb
# Description: as §3, §4
# [11] = tested on: Cyp3a11; set-up: method as in PMID 22466549; details: mouse in vivo; cited from earlier work
# [12] = tested on: Cyp1a1; test: Cyp450 induction on mRNA level (qRT-PCR) in liver spheroids; assay type: in vitro ADME, mouse; details: 15 μM βNF
# Description: as §3, §4
# [13] = tested on: Cyp1a2; test: as above; assay type: in vitro ADME, mouse; details: 15 μM βNF
# Description: as §3, §4
# [14] = tested on: Cyp3a11; test: Crosstalk of parenchymal and non-parenchymal cells: Cyp3a11 mRNA in coculture spheroids ± LPS; details: LPS alone, 10 μg/ml, 48 h
# Description: as §1, §2
# [15] = tested on: IL-6 release of Kupffer cells and liver sinusoidal endothelial cells; test: LPS-induced IL-6 release (ELISA) from liver spheroids; assay type: cell-based, mouse; details: LPS for 72 hours, 14 days after production
# Description: (§5) The activation potential of Kupffer cells and liver sinusoidal endothelial cells was measured by assessing the lipopolysaccharide (LPS)-induced interleukin 6 (IL-6) release. […] was added, and the supernatant was collected after […]. IL-6 concentrations were measured by ELISA (BioLegend, USA). For stellate-cell activation, spheroids were treated with different concentrations of transforming growth factor beta TGFβ (Bio-Techne AG, Switzerland) for 72 hours. Induction of smooth-muscle-α-actin (Acta2) gene expression was measured via quantitative real-time polymerase chain reaction (qRT-PCR), described in the section “gene expression analysis”. For the induction of the major histocompatibility complex class II (MHCII) on LSECs, spheroids were treated with 100 ng ml^-1 tumor-necrosis factor alpha (TNFα; Sigma-Aldrich, Switzerland) for 48 h. H2-Ab1 gene expression was measured via qRT-PCR.
# (§6) NPCs are activated upon detection of endotoxins, such as lipopolysaccharides (LPS), which leads to the secretion of certain cytokines by NPCs. To assess the functionality and activation potential of NPCs, monoculture and coculture spheroids were treated with LPS for 72 hours and analyzed for interleukin 6 (IL-6) release (Fig 4C). […] Stellate cells are quiescent in a normal liver but can be activated upon liver damage and are responsible for scar-tissue formation. […]
# [16] = tested on: Acta2 (alpha smooth muscle actin); test: Stellate-cell activation: Acta2 gene expression (qRT-PCR) in coculture spheroids; assay type: cell-based, mouse; details: 72 h
# Description: as §5
# NPCs are activated upon detection of endotoxins, such as lipopolysaccharides (LPS), which leads to the secretion of certain cytokines by NPCs. To assess the functionality and activation potential of NPCs, monoculture and coculture spheroids were treated with LPS for 72 hours and analyzed for interleukin 6 (IL-6) release (Fig 4C). […] Stellate cells are quiescent in a normal liver but can be activated upon liver damage and are responsible for scar-tissue formation. Stimulation with transforming growth factor beta (TGFβ), triggered a dose-dependent induction of Acta2 (alpha smooth muscle actin, αSMA), which is an activation marker for stellate cells (Fig 4D). Low concentrations of TGFβ increased Acta2 induction by 3.5 fold, whereas higher concentrations induced gene expression by 4.7-fold and 8-fold, respectively. The functional characterization of liver sinusoidal endothelial cells was performed by induction of the major histocompatibility complex II (MHC-II), which is constitutively expressed in LSECs but can be further increased by exposure to pro-inflammatory cytokines, such as tumor necrosis factor alpha (TNFα).
# [17] = tested on: H2-Ab1 (MHC-II); test: MHC-II induction on LSECs: H2-Ab1 gene expression (qRT-PCR) in coculture spheroids; assay type: cell-based, mouse; details: 100 ng ml^-1 TNFα, 48 h
# Description: as §5, §6
# [18] = read-out: 3D in vitro IC50 8 days
# [19] = read-out: 3D in vitro IC50 48 h
compound,measurement,setting,value
CC(=O)Nc1ccc(O)cc1 [Acetaminophen],IC50,[1]; [18],2750 µM
same,Cmax,[2],136 µM
same,Cmax,[3],2220 µM
O=C1CC2(CCCC2)CC(=O)N1CCCCN1CCN(c2ncccn2)CC1 [Buspirone],MOS [3D in vitro IC50 / Human Cmax] 48 h,[1],49189
same,MOS [3D in vitro IC50 / Human Cmax] 8 days,[1],20489
same,IC50,[1]; [19],443 µM
same,IC50,[1]; [18],184 µM
same,hepatotoxicity class by IC50/Cmax (MOS),[1]; mouse,non-DILI compounds
same,Cmax,[2],0.009 µM
"CN(C)CCCN1c2ccccc2Sc2ccc(Cl)cc21 [CPZ, Chlorpromazine]",inhibition of BSEP expression,[4]; high concentrations of CPZ,96%
same,inhibition of BSEP expression,[4]; low concentrations of CPZ,up to 87%
same,cytotoxicity by LDH or ATP,[5],no cytotoxicity
O=P1(N(CCCl)CCCl)NCCCO1 (stereo not shown) [Cyclophosphamide],IC50,[1]; [19],197 µM
same,IC50,[1]; [18],13.3 µM
same,hepatotoxicity class by IC50/Cmax (MOS),"[1]; after 48 hours (short-term exposure), cut-off 100",hepatotoxic agents
same,Cmax,[2],96 µM
same,Cmax,[3],77 µM
C[C@@H]1C[C@H]2[C@@H]3CCC4=CC(=O)C=C[C@]4(C)[C@@]3(F)[C@@H](O)C[C@]2(C)[C@@]1(O)C(=O)CO [Dexamethasone],reduction of LPS-induced IL-6 mRNA induction,[6]; co-administration of 50 μM Dexamethasone with LPS,~ 50%
same,effect on LPS-induced TNFα gene expression,[7],only moderate reduction
O=C(O)Cc1ccccc1Nc1c(Cl)cccc1Cl [Diclofenac],IC50,[1]; [19],294 µM
same,IC50,[1]; [18],29.7 µM
same,Cmax,[2],9.43 µM
same,Cmax,[3],10 µM
CC(=O)N1CCN(c2ccc(OCC3COC(Cn4ccnc4)(c4ccc(Cl)cc4Cl)O3)cc2)CC1 (stereo not shown) [Ketoconazole],downregulation of Cyp3a activity,[8],60%
CN(Cc1cnc2nc(N)nc(N)c2n1)c1ccc(C(=O)N[C@@H](CCC(=O)O)C(=O)O)cc1 [Methotrexate],reduction in cell viability after a single dosage,[1],only a slight reduction in cell viability
same,MOS [3D in vitro IC50 / Human Cmax] 48 h,[1],84’231
same,MOS [3D in vitro IC50 / Human Cmax] 8 days,[1],44.64
same,IC50,[1]; [18],207 µM
same,hepatotoxicity class by IC50/Cmax (MOS),[1]; mouse,assigned to the correct class
same,Cmax,[3],43 µM
CCC1(c2ccccc2)C(=O)NC(=O)NC1=O [Phenobarbital],Cyp3a11 mRNA induction compared to the vehicle control,[9]; day 10 (treated day 7-10),6.2 fold
same,Cyp3a11 mRNA induction compared to the vehicle control,[9]; day 17 (treated day 14-17),3.9 fold
same,Cyp2b10 mRNA induction,[10]; day 10,1.9 fold
same,Cyp2b10 mRNA induction,[10]; day 17,2.4 fold
CC(=O)[C@H]1[C@H](C#N)C[C@H]2[C@@H]3CC=C4C[C@@H](O)CC[C@]4(C)[C@H]3CC[C@@]21C [Pregnenolone 16α-carbonitrile],reduced expression of Cyp3a11 mRNA when administered together with LPS,[11],25%
same,Cyp3a11 mRNA induction compared to the vehicle control,[9]; day 10 (treated day 7-10),20 fold
same,Cyp3a11 mRNA induction compared to the vehicle control,[9]; day 17 (treated day 14-17),59 fold
CC(C)NCC(O)COc1cccc2ccccc12 (stereo not shown) [Propranolol],Cmax,[2],0.2 µM
CN(C)[C@@H]1C(O)=C(C(N)=O)C(=O)[C@@]2(O)C(O)=C3C(=O)c4c(O)cccc4[C@@](C)(O)[C@H]3C[C@@H]12 [Tetracycline],IC50,[1]; [19],436 µM
same,IC50,[1]; [18],39.7 µM
same,Cmax,[2],21 µM
same,Cmax,[3],11 µM
Cc1c(C)c2c(c(C)c1O)CCC(C)(COc1ccc(CC3SC(=O)NC3=O)cc1)O2 (stereo not shown) [Troglitazone],inhibition of BSEP expression,[4]; 1.25 μM,10%
same,inhibition of BSEP expression,[4]; 2.5 μM,40%
same,inhibition of BSEP expression,[4]; 10 μM,89%
same,cytotoxicity by LDH or ATP,[5],no cytotoxicity
O=c1cc(-c2ccccc2)oc2ccc3ccccc3c12 [β-naphthoflavone],Cyp1a1 mRNA induction,[12]; day 10,90 fold
same,Cyp1a1 mRNA induction,[12]; day 17,103 fold
same,Cyp1a2 mRNA induction,[13]; day 10,157 fold
same,Cyp1a2 mRNA induction,[13]; day 17,59 fold
lipopolysaccharide [LPS],IL-6 mRNA expression increase,"[6]; LPS alone, 10 μg/ml, 48 h, coculture spheroids",6 fold
same,Cyp3a11 mRNA induction,[14],did not lead to Cyp3a11 mRNA induction
same,IL-6 release,[15]; coculture spheroids,65 ± 11 pg/mL
same,IL-6 release,[15]; monoculture spheroids,2 pg/mL
transforming growth factor beta [TGFβ],Acta2 induction,[16]; higher concentration of TGFβ (first of two),4.7 fold
same,Acta2 induction,[16]; higher concentration of TGFβ (second of two),8 fold
same,Acta2 induction,[16]; low concentrations of TGFβ,3.5 fold
tumor-necrosis factor alpha [TNFα],increase of mRNA expression of MHC-II (H2-Ab1),[17],2.3 fold
